Results from the supplement of paper PMC10307832.

Columns and labels:
Assay in all cases: relative viability (nuclei count vs DMSO), 5 days (fraction); higher = more cells survive
[1] = compound: C1=CC2=C(C=C(C(=C2N=C1)O)N=NC3=CC4=C(C=C3)C=C(C=C4)S(=O)(=O)O)S(=O)(=O)O
Method in brief: (§1)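 Cells of lung cancer lines were placed in 1536-well plates and kept overnight at 37 °C. Pinning then delivered five library-drug doses (not always all listed), spaced by √10, onto plates anchored with vehicle, and the cells were left 5 days without changing medium. One step fixed, permeabilised and stained them with Hoechst, and MetaXpress counted nuclei in 4× images. Viability, as a median over plates, is treated-well nuclei divided by vehicle-well nuclei, with acceptance only at control CV below 25% and at least one doubling.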

[2] = compound: O=C(NC1CCNCC1)c1n[nH]cc1NC(=O)c1c(Cl)cccc1Cl [AT-7519]
Method in brief: as §1

[3] = compound: C1=CC2=C(C=C(C(=C2N=C1)O)N=NC3=CC4=C(C=C3)C=C(C=C4)S(=O)(=O)O)S(=O)(=O)O + Cc1nc(NC(=O)N2CCC[C@H]2C(N)=O)sc1-c1ccnc(C(C)(C)C(F)(F)F)c1 [Alpelisib] (partner 2 µM)
Method in brief: (§2)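 Lung cancer cell lines in 1536-well plates were dosed by pin tool the day after seeding, either with one drug alone or with a fixed anchor-drug dose plus five library-drug doses (not always all listed) in √10 steps. After 5 days, cells were fixed and their nuclei stained in one step (final 0.05% Triton X-100, 1% formaldehyde, 1 ug/ml Hoechst), then counted on 4× images. Relative viability is the nuclei count in treated wells divided by that in vehicle wells. Values are medians of duplicate plates.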

[4] = compound: O=C(NC1CCNCC1)c1n[nH]cc1NC(=O)c1c(Cl)cccc1Cl [AT-7519] + Nc1nc2[nH]cc(CCc3ccc(C(=O)N[C@@H](CCC(=O)O)C(=O)O)cc3)c2c(=O)[nH]1 [Pemetrexed] (partner 0.2 µM)
Method in brief: as §2

Cell Line | relative viability ([1]; 0.08 µM) | relative viability ([1]; 0.253 µM) | relative viability ([1]; 0.8 µM) | relative viability ([1]; 2.53 µM) | relative viability ([1]; 8 µM) | relative viability ([2]; 0.01 µM) | relative viability ([2]; 0.03162 µM) | relative viability ([2]; 0.3162 µM) | relative viability ([2]; 1 µM) | relative viability ([3]; first compound 0.08 µM) | relative viability ([3]; first compound 0.253 µM) | relative viability ([3]; first compound 0.8 µM) | relative viability ([3]; first compound 2.53 µM) | relative viability ([3]; first compound 8 µM) | relative viability ([4]; first compound 0.01 µM) | relative viability ([4]; first compound 0.03162 µM) | relative viability ([4]; first compound 0.3162 µM) | relative viability ([4]; first compound 1 µM)
LU99A | 1.02 | 0.936 | 0.901 | 0.95 | 0.948 | 1.02 | 0.857 | 0.826 | 0.974 | 0.608 | 0.488 | 0.422 | 0.582 | 0.514 | 0.215 | 0.199 | 0.165 | 0.198
LXF-289 | 1.09 | 0.958 | 1.01 | 1.04 | 0.955 | 1 | 0.938 | 1.01 | 1.02 | 1.13 | 1.01 | 1.02 | 1.08 | 0.976 | 0.866 | 0.905 | 0.909 | 0.992
NCI-H23 | 0.912 | 0.873 | 0.932 | 1.04 | 0.9 | 0.856 | 0.858 | 0.912 | 0.616 | 0.753 | 0.676 | 0.614 | 0.705 | 0.807 | 0.563 | 0.734 | 0.591 | 0.494
NCI-H322M | 1.07 | 0.93 | 0.901 | 0.877 | 0.951 | 0.913 | 0.947 | 0.773 | 0.798 | 0.917 | 0.82 | 0.687 | 0.846 | 0.814 | 0.563 | 0.623 | 0.469 | 0.543
NCI-H358 | 1.08 | 0.978 | 0.841 | 0.943 | 1.01 | 0.889 | 0.86 | 0.85 | 0.31 | 0.902 | 0.927 | 0.776 | 0.833 | 0.354 | 0.175 | 0.172 | 0.164 | 0.132
NCI-H441 | 1.16 | 0.942 | 0.898 | 1.06 | 0.947 | 1.03 | 1.02 | 1.05 | 0.523 | 0.823 | 0.823 |  | 0.736 | 1.09 | 0.283 | 0.266 | 0.263 | 0.198
NCI-H460 | 1.07 | 0.992 | 0.977 | 0.987 | 0.945 | 1 | 0.89 | 0.982 | 0.601 | 0.545 | 0.456 | 0.511 | 0.5 | 0.291 | 0.0626 | 0.0564 | 0.0558 | 0.0636
NCI-H520 | 1.09 | 0.926 | 1.02 | 0.985 | 1.08 | 1.06 | 0.925 | 0.915 | 0.695 | 0.907 | 0.846 | 0.923 | 0.869 | 0.995 | 0.815 | 0.635 | 0.619 | 0.389
NCI-H596 | 1.06 | 0.987 | 0.982 | 1.03 | 1.01 | 0.928 | 0.925 | 1.04 | 0.912 | 0.48 | 0.454 | 0.575 | 0.475 | 0.482 | 0.473 | 0.501 | 0.459 | 0.513
NCI-H647 | 0.877 | 0.932 | 0.881 | 1.08 | 0.971 | 1 | 0.923 | 0.886 | 0.72 | 1.32 | 1.19 | 1.11 | 1.17 | 0.984 | 0.142 | 0.159 | 0.177 | 0.129
NCI-H650 | 0.883 | 0.937 | 0.86 | 0.969 | 0.671 | 1.02 | 0.871 | 1.01 | 1.03 | 1.25 | 1.11 | 1.08 | 1.08 | 1.09 | 1.07 | 1 | 0.931 | 1.25
NCI-H661 | 1.02 | 1 | 0.969 | 1.01 | 0.967 | 1.04 | 0.874 | 1.02 | 0.648 | 0.746 | 0.467 | 0.54 | 0.703 | 0.967 | 0.945 | 0.953 | 0.99 | 0.262
NCI-H838 | 1 | 0.966 | 0.924 | 0.992 | 0.997 | 0.925 | 0.876 | 0.891 | 0.615 | 1.22 | 0.959 | 1.05 | 1.05 | 0.97 | 0.247 | 0.246 | 0.281 | 0.115
NCI-H1355 | 1.08 | 0.982 | 0.965 | 0.993 | 0.856 | 1.01 | 0.961 | 0.992 | 1.05 | 0.94 | 0.838 | 0.767 | 0.905 | 0.956 | 1.04 | 1.03 | 1.06 | 0.974
NCI-H1395 | 0.9 | 0.939 | 0.843 | 0.976 | 0.899 | 0.934 | 0.998 | 0.816 | 0.665 | 1.08 | 1.21 | 1.09 | 1.06 | 1.23 | 0.847 | 0.896 | 0.899 | 0.558
NCI-H1437 | 1 | 1 | 0.988 | 1.05 | 0.912 | 0.985 | 0.99 | 0.999 | 0.879 | 1.06 | 0.995 | 0.935 | 0.94 | 0.929 | 0.325 | 0.326 | 0.35 | 0.229
NCI-H1563 | 1.09 | 0.96 | 0.995 | 0.949 | 0.878 | 0.955 | 0.934 | 1.02 | 0.998 | 0.931 | 0.94 | 1.07 | 1.11 | 1.1 | 0.743 | 0.868 | 0.81 | 0.807
